{"source": "patent US20030229140A1", "about": "“Herbal molecule as potential anti-leukemic drug” (priority 2002, published 2003)", "key": {"AML patient's PBMC": {"system": "AML patient's PBMC", "experiment": "Incubation of AML patient's PBMC with CA, viable cell count", "assay_type": "cell-based, human", "method": "Whole blood (10 ml each) was drawn from previously diagnosed myeloid leukemic patients, one patient was diagnosed as AML and the other one was diagnosed as CML. Mononuclear cells were separated by Ficoll/hypaque density gradient centrifugation. PBMC (1×10^5-2×10^6/ml) of myeloid leukemia patients were incubated with varied concentrations of CA for 48 hours at 37° C. in 5% CO2. Cells were then washed and counted for viability."}, "CML patient's PBMC": {"system": "CML patient's PBMC", "experiment": "Incubation of CML patient's PBMC (leukemic cells) with CA/PCQ, viable cell count", "assay_type": "cell-based, human", "method": "Whole blood (10 ml each) was drawn from previously diagnosed myeloid leukemic patients, one patient was diagnosed as AML and the other one was diagnosed as CML. Mononuclear cells were separated by Ficoll/hypaque density gradient centrifugation. […] Cells were then washed and counted for viability."}, "[1]": {"system": "Promonocytic cell line (U937)", "experiment": "Incubation of CD33+ promonocytic cell line U937 with CA/PCQ, viable cell count", "assay_type": "cell-based", "settings": "Homo sapiens; for inhibition at 25 µg/mL: U937, 25.0 μg/ml; for inhibition at 50 µg/mL: U937, 50.0 μg/ml; for inhibition at 100 µg/mL: U937, 100.0 μg/ml", "method": "Culture of Promonocytic cell line U937. […] This cell line is CD33^+. Incubation of CD33^+ cell line U937 with CA. […] Cells were then washed and counted for viability."}, "[2]": {"settings": "U-937, 24 h, 1 day, 1 × 10^5 cells per ml per well, read-out: Percentage inhibition of Cell Growth"}, "[3]": {"settings": "U-937, 48 h, 2 days, 1 × 10^5 cells per ml per well, read-out: Percentage inhibition of Cell Growth"}, "[4]": {"settings": "U-937, 72 h, 3 days, 1 × 10^5 cells per ml per well, read-out: Percentage inhibition of Cell Growth"}, "[5]": {"settings": "U-937, 72 h, 3 days, 2×10^5 cells per ml per well, read-out: % Inhibition of cell growth (After 3 days of incubation)"}}, "note": "Read-outs that look alike come from different tables or passages of the source.", "data": [{"smiles": "O=C(/C=C/c1ccc(O)c(O)c1)O[C@@H]1C[C@](O)(C(=O)O)C[C@@H](O)[C@H]1O", "note": "(single isomer, unassigned) [CA, chlorogenic acid or 3-Caffeoyl quinic acid]", "values": [{"measurement": "inhibition at 20 µg/mL", "setting": "AML patient's PBMC; Homo sapiens, AML patient's PBMC, 20 μg/ml, 48 hr, 1 × 10^5 cells/ml/well, read-out: Percent inhibition of cell growth after 48 hr of incubation", "result": 9.5, "unit": "%"}, {"measurement": "inhibition at 50 µg/mL", "setting": "AML patient's PBMC; Homo sapiens, AML patient's PBMC, 50 μg/ml, 48 hr, 1 × 10^5 cells/ml/well, read-out: Percent inhibition of cell growth after 48 hr of incubation", "result": 16.6, "unit": "%"}, {"measurement": "inhibition at 100 µg/mL", "setting": "AML patient's PBMC; Homo sapiens, AML patient's PBMC, 100 μg/ml, 48 hr, 1 × 10^5 cells/ml/well, read-out: Percent inhibition of cell growth after 48 hr of incubation", "result": 73.8, "unit": "%"}, {"measurement": "inhibition at 500 µg/mL", "setting": "AML patient's PBMC; Homo sapiens, AML patient's PBMC, 500 μg/ml, 48 hr, 1 × 10^5 cells/ml/well, read-out: Percent inhibition of cell growth after 48 hr of incubation", "result": 85.7, "unit": "%"}, {"measurement": "destruction of cells (in words)", "setting": "AML patient's PBMC; PBMC of myeloid leukemia patients (AML)", "result": "destroyed"}, {"measurement": "growth inhibition of leukemic cell lines", "setting": "CML patient's PBMC; CML leukemic cells, 2×10^6/ml/well, 25 μg/ml of CA", "result": "up to 2.38"}, {"measurement": "destruction of cells (in words)", "setting": "CML patient's PBMC; CML patient's leukemic cells", "result": "destroyed"}, {"measurement": "inhibition at 50 µg/mL", "setting": "CML patient's PBMC; Homo sapiens, 24 h, CML patient's PBMC, 50.0 μg/ml, 1 day, 1 × 10^5 cells per ml per well, read-out: Percentage inhibition of Cell Growth", "result": 4.76, "unit": "%"}, {"measurement": "inhibition at 100 µg/mL", "setting": "CML patient's PBMC; Homo sapiens, 24 h, CML patient's PBMC, 100.0 μg/ml, 1 day, 1 × 10^5 cells per ml per well, read-out: Percentage inhibition of Cell Growth", "result": 9.52, "unit": "%"}, {"measurement": "inhibition at 50 µg/mL", "setting": "CML patient's PBMC; Homo sapiens, 48 h, CML patient's PBMC, 50.0 μg/ml, 2 days, 1 × 10^5 cells per ml per well, read-out: Percentage inhibition of Cell Growth", "result": 22.2, "unit": "%"}, {"measurement": "inhibition at 100 µg/mL", "setting": "CML patient's PBMC; Homo sapiens, 48 h, CML patient's PBMC, 100.0 μg/ml, 2 days, 1 × 10^5 cells per ml per well, read-out: Percentage inhibition of Cell Growth", "result": 45, "unit": "%"}, {"measurement": "inhibition at 50 µg/mL", "setting": "CML patient's PBMC; Homo sapiens, 72 h, CML patient's PBMC, 50.0 μg/ml, 3 days, 1 × 10^5 cells per ml per well, read-out: Percentage inhibition of Cell Growth", "result": 30, "unit": "%"}, {"measurement": "inhibition at 100 µg/mL", "setting": "CML patient's PBMC; Homo sapiens, 72 h, CML patient's PBMC, 100.0 μg/ml, 3 days, 1 × 10^5 cells per ml per well, read-out: Percentage inhibition of Cell Growth", "result": 55.6, "unit": "%"}, {"measurement": "inhibition at 25 µg/mL", "setting": "CML patient's PBMC; Homo sapiens, PBMC, 72 h, CML patient's leukemic cells, 25.0 μg/ml, 3 days, 2×10^5 cells per ml per well, read-out: % Inhibition of cell growth (After 3 days of incubation)", "result": 2.38, "unit": "%"}, {"measurement": "inhibition at 50 µg/mL", "setting": "CML patient's PBMC; Homo sapiens, PBMC, 72 h, CML patient's leukemic cells, 50.0 μg/ml, 3 days, 2×10^5 cells per ml per well, read-out: % Inhibition of cell growth (After 3 days of incubation)", "result": 4.67, "unit": "%"}, {"measurement": "inhibition at 20 µg/mL", "setting": "CML patient's PBMC; Homo sapiens, CML patient's PBMC, 20 μg/ml, 48 hr, 1 × 10^5 cells/ml/well, read-out: Percent inhibition of cell growth after 48 hr of incubation", "result": 5.8, "unit": "%"}, {"measurement": "inhibition at 50 µg/mL", "setting": "CML patient's PBMC; Homo sapiens, CML patient's PBMC, 50 μg/ml, 48 hr, 1 × 10^5 cells/ml/well, read-out: Percent inhibition of cell growth after 48 hr of incubation", "result": 10.3, "unit": "%"}, {"measurement": "inhibition at 100 µg/mL", "setting": "CML patient's PBMC; Homo sapiens, CML patient's PBMC, 100 μg/ml, 48 hr, 1 × 10^5 cells/ml/well, read-out: Percent inhibition of cell growth after 48 hr of incubation", "result": 22.5, "unit": "%"}, {"measurement": "inhibition at 500 µg/mL", "setting": "CML patient's PBMC; Homo sapiens, CML patient's PBMC, 500 μg/ml, 48 hr, 1 × 10^5 cells/ml/well, read-out: Percent inhibition of cell growth after 48 hr of incubation", "result": 32.3, "unit": "%"}, {"measurement": "inhibition at 10 µg/mL", "setting": "[1]; U-937, 24 h, U937, 10.0 μg/ml, 1 day, 1 × 10^5 cells per ml per well, read-out: Percentage inhibition of Cell Growth", "result": 8.33, "unit": "%"}, {"measurement": "inhibition at 25 µg/mL", "setting": "[1]; [2]", "result": 16.7, "unit": "%"}, {"measurement": "inhibition at 50 µg/mL", "setting": "[1]; [2]", "result": 25, "unit": "%"}, {"measurement": "inhibition at 100 µg/mL", "setting": "[1]; [2]", "result": 45.8, "unit": "%"}, {"measurement": "inhibition at 10 µg/mL", "setting": "[1]; U-937, 48 h, U937, 10.0 μg/ml, 2 days, 1 × 10^5 cells per ml per well, read-out: Percentage inhibition of Cell Growth", "result": 44, "unit": "%"}, {"measurement": "inhibition at 25 µg/mL", "setting": "[1]; [3]", "result": 52, "unit": "%"}, {"measurement": "inhibition at 50 µg/mL", "setting": "[1]; [3]", "result": 64, "unit": "%"}, {"measurement": "inhibition at 100 µg/mL", "setting": "[1]; [3]", "result": 96, "unit": "%"}, {"measurement": "inhibition at 10 µg/mL", "setting": "[1]; U-937, 72 h, U937, 10.0 μg/ml, 3 days, 1 × 10^5 cells per ml per well, read-out: Percentage inhibition of Cell Growth", "result": 57.1, "unit": "%"}, {"measurement": "inhibition at 25 µg/mL", "setting": "[1]; [4]", "result": 71.4, "unit": "%"}, {"measurement": "inhibition at 25 µg/mL", "setting": "[1]; [5]", "result": 16.7, "unit": "%"}, {"measurement": "inhibition at 50 µg/mL", "setting": "[1]; [4]", "result": 89.3, "unit": "%"}, {"measurement": "inhibition at 50 µg/mL", "setting": "[1]; [5]", "result": 25, "unit": "%"}, {"measurement": "inhibition at 100 µg/mL", "setting": "[1]; [4]", "result": 100, "unit": "%"}, {"measurement": "inhibition at 10 µg/mL", "setting": "[1]; U-937, U937, 10 μg/ml, 48 hr, 1 × 10^5 cells/ml/well, read-out: Percent inhibition of cell growth after 48 hr of incubation", "result": 25, "unit": "%"}, {"measurement": "inhibition at 15 µg/mL", "setting": "[1]; U-937, U937, 15 μg/ml, 48 hr, 1 × 10^5 cells/ml/well, read-out: Percent inhibition of cell growth after 48 hr of incubation", "result": 43.7, "unit": "%"}]}]}
